Data on 65 sequences can be found in the supplement of paper PMC11208160.
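Also: IS621 bridge recombinase in Escherichia coli cells against a fixed T5 target plasmid.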

This data set in a line: recombinant UMI read abundance after kanamycin selection (control-corrected) (log10(CPM+1)); higher = more efficient recombination; extreme values may be limits of the assay; sequences stand for … in AGTGCAGAGAAAATCGGCCAGTTTTCTCTGCCTGCAGTCCGCATGCCGTGGGACCCCTTGGGTTCTAACCTGTTGCCTAGATTTATGCAGCGGACTGCCTTTCTCCCAAAGTGATAAACCGG…AGGTTGGTTTCACT; site = the 11-nt donor. The method, then: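 Pooled E. coli donor-specificity screen for the IS621 bridge recombinase. Each library member carries a reprogrammed 11-nt donor and a full-length LE bridge RNA expressed in cis from the natural promoter, with a paired donor-binding loop (8-nt LDG + 4-nt RDG) and a target-binding loop fixed to T5. It is co-electroporated with a T5 target plasmid; recombinase is induced with 0.07 mM IPTG and recombinants are selected on kanamycin. UMIs are counted as CPM, averaged over two biological replicates and corrected by the unselected control. Molecule = full bridge RNA written as DNA, built from the T5 scaffold: LDG = donor specificity nt 1-8, RDG = reverse complement of nt 8-11.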
As to “AACGACGCATGGACCGGTTTTCCCGGTAATCCGTATTTGTA (site AACGACGCTTA)”, the “recombinant UMI read abundance (log10)” value turned out to be 1.99.

Take “AACGAGCCATGGACCGGTTTTCCCGGTAATCCGTATTTGAA (site AACGAGCCTTT)”: the “recombinant UMI read abundance (log10)” value stood at 0.157.

As for “AACGCAACATGGACCGGTTTTCCCGGTAATCCGTATTTGTT (site AACGCAACTAA)”, the “recombinant UMI read abundance (log10)” value was found to be 0.495.

Take “AACGCTGCATGGACCGGTTTTCCCGGTAATCCGTATTTGAA (site AACGCTGCTTT)”: the “recombinant UMI read abundance (log10)” value was found to be 1.06.

Take “AACGGAACATGGACCGGTTTTCCCGGTAATCCGTATTTGAT (site AACGGAACTAT)”: the “recombinant UMI read abundance (log10)” value turned out to be 2.33.

For “AACGGTCCATGGACCGGTTTTCCCGGTAATCCGTATTTGGC (site AACGGTCCTGC)”, the “recombinant UMI read abundance (log10)” value came out at 0.

Take “AACGTTTCATGGACCGGTTTTCCCGGTAATCCGTATTTGCT (site AACGTTTCTAG)”: the “recombinant UMI read abundance (log10)” value amounted to 2.48.

For the sequence “AACTAGCCATGGACCGGTTTTCCCGGTAATCCGTATTTGCG (site AACTAGCCTCG)”, the “recombinant UMI read abundance (log10)” value was determined as 0.00356.

For the sequence “AACTATACATGGACCGGTTTTCCCGGTAATCCGTATTTGAC (site AACTATACTGT)”, the “recombinant UMI read abundance (log10)” value was determined as 2.31.

Consider “AACTATACATGGACCGGTTTTCCCGGTAATCCGTATTTGAC (site ACCTATACTGT)”, for which the “recombinant UMI read abundance (log10)” value was 0.367.

Regarding “AACTATACATGGACCGGTTTTCCCGGTAATCCGTATTTGAC (site AGCTATACTGT)”, the “recombinant UMI read abundance (log10)” value worked out at 0.797.

Take “AACTATACATGGACCGGTTTTCCCGGTAATCCGTATTTGAC (site ATCTATACTGT)”: the “recombinant UMI read abundance (log10)” value was 1.94.

Consider “AACTATGCATGGACCGGTTTTCCCGGTAATCCGTATTTGGA (site AAATATGCTTC)”, for which the “recombinant UMI read abundance (log10)” value is 0.502.

Turning to “AACTATGCATGGACCGGTTTTCCCGGTAATCCGTATTTGGA (site AACTATGCTTC)”, the “recombinant UMI read abundance (log10)” value was 1.22.

“AACTATGCATGGACCGGTTTTCCCGGTAATCCGTATTTGGA (site AAGTATGCTTC)”: the “recombinant UMI read abundance (log10)” value turned out to be 0.552.

As to “AACTATGCATGGACCGGTTTTCCCGGTAATCCGTATTTGGA (site AATTATGCTTC)”, the “recombinant UMI read abundance (log10)” value came out at 0.908.

For “AACTATTCATGGACCGGTTTTCCCGGTAATCCGTATTTGCG (site AACTATTCTCG)”, the “recombinant UMI read abundance (log10)” value came out at 2.02.

With “AACTGGACATGGACCGGTTTTCCCGGTAATCCGTATTTGGG (site AACTGGACTCC)”, the “recombinant UMI read abundance (log10)” value is 0.0254.

Take “AACTTGACATGGACCGGTTTTCCCGGTAATCCGTATTTGAC (site AACTTGACTGT)”: the “recombinant UMI read abundance (log10)” value came to 0.

On to “AACTTGTCATGGACCGGTTTTCCCGGTAATCCGTATTTGGC (site AACTTGTCTGC)”, for which the “recombinant UMI read abundance (log10)” value was 0.

As for “AAGAACACATGGACCGGTTTTCCCGGTAATCCGTATTTGCA (site AAGAACACTTG)”, the “recombinant UMI read abundance (log10)” value came to 2.85.

Turning to “AAGAACACATGGACCGGTTTTCCCGGTAATCCGTATTTGCA (site AGGAAGACTTG)”, the “recombinant UMI read abundance (log10)” value was 0.

“AAGAAGACATGGACCGGTTTTCCCGGTAATCCGTATTTGAA (site AAGAAGACTTT)”: the “recombinant UMI read abundance (log10)” value was found to be 2.39.

On to “AAGAAGACATGGACCGGTTTTCCCGGTAATCCGTATTTGAA (site AGGAAGACTTG)”, for which the “recombinant UMI read abundance (log10)” value was 0.

Turning to “AAGAAGTCATGGACCGGTTTTCCCGGTAATCCGTATTTGTA (site AAGAAGTCTTA)”, the “recombinant UMI read abundance (log10)” value amounted to 3.3.

As for “AAGAGGACATGGACCGGTTTTCCCGGTAATCCGTATTTGCA (site AAGAGGACTTG)”, the “recombinant UMI read abundance (log10)” value is 2.65.

“AAGAGGACATGGACCGGTTTTCCCGGTAATCCGTATTTGCA (site AGGAAGACTTG)”: the “recombinant UMI read abundance (log10)” value came out at 1.62.

In the case of “AAGCAAGCATGGACCGGTTTTCCCGGTAATCCGTATTTGGG (site AAGCAAGCTCC)”, the “recombinant UMI read abundance (log10)” value worked out at 0.623.

In the case of “AAGCAAGCATGGACCGGTTTTCCCGGTAATCCGTATTTGGG (site AAGCACGCTCC)”, the “recombinant UMI read abundance (log10)” value turned out to be 0.0526.

Turning to “AAGCAAGCATGGACCGGTTTTCCCGGTAATCCGTATTTGGG (site AAGCAGGCTCC)”, the “recombinant UMI read abundance (log10)” value amounted to 0.

With “AAGCAAGCATGGACCGGTTTTCCCGGTAATCCGTATTTGGG (site AAGCATGCTCC)”, the “recombinant UMI read abundance (log10)” value came to 0.0463.

Turning to “AAGCACACATGGACCGGTTTTCCCGGTAATCCGTATTTGGG (site AAGCACACTCC)”, the “recombinant UMI read abundance (log10)” value was determined as 0.242.

As for “AAGCACACATGGACCGGTTTTCCCGGTAATCCGTATTTGGG (site AAGCACCCTCC)”, the “recombinant UMI read abundance (log10)” value turned out to be 0.0138.

In the case of “AAGCACACATGGACCGGTTTTCCCGGTAATCCGTATTTGGG (site AAGCACGCTCC)”, the “recombinant UMI read abundance (log10)” value turned out to be 0.0056.

“AAGCACACATGGACCGGTTTTCCCGGTAATCCGTATTTGGG (site AAGCACTCTCC)”: the “recombinant UMI read abundance (log10)” value was 0.222.

In the case of “AAGCACTCATGGACCGGTTTTCCCGGTAATCCGTATTTGGG (site AAGCACACTCC)”, the “recombinant UMI read abundance (log10)” value is 0.0075.

On to “AAGCACTCATGGACCGGTTTTCCCGGTAATCCGTATTTGGG (site AAGCACCCTCC)”, for which the “recombinant UMI read abundance (log10)” value came out at 0.00615.

Consider “AAGCACTCATGGACCGGTTTTCCCGGTAATCCGTATTTGGG (site AAGCACGCTCC)”, for which the “recombinant UMI read abundance (log10)” value was found to be 0.0931.

In the case of “AAGCACTCATGGACCGGTTTTCCCGGTAATCCGTATTTGGG (site AAGCACTCTCC)”, the “recombinant UMI read abundance (log10)” value amounted to 1.57.

Consider “AAGCCTGCATGGACCGGTTTTCCCGGTAATCCGTATTTGTA (site AAGCCTGCTTA)”, for which the “recombinant UMI read abundance (log10)” value amounted to 0.811.

For “AAGCGCGCATGGACCGGTTTTCCCGGTAATCCGTATTTGGG (site AAGCACGCTCC)”, the “recombinant UMI read abundance (log10)” value is 0.0182.

Consider “AAGCGCGCATGGACCGGTTTTCCCGGTAATCCGTATTTGGG (site AAGCCCGCTCC)”, for which the “recombinant UMI read abundance (log10)” value was 0.0103.

On to “AAGCGCGCATGGACCGGTTTTCCCGGTAATCCGTATTTGGG (site AAGCGCGCTCC)”, for which the “recombinant UMI read abundance (log10)” value was found to be 0.214.

For the sequence “AAGCGCGCATGGACCGGTTTTCCCGGTAATCCGTATTTGGG (site AAGCTCGCTCC)”, the “recombinant UMI read abundance (log10)” value is 0.0124.

For “AAGCGTCCATGGACCGGTTTTCCCGGTAATCCGTATTTGAT (site AAACGTCCTAT)”, the “recombinant UMI read abundance (log10)” value came to 0.245.

Take “AAGCGTCCATGGACCGGTTTTCCCGGTAATCCGTATTTGAT (site AACCGTCCTAT)”: the “recombinant UMI read abundance (log10)” value amounted to 0.281.

As to “AAGCGTCCATGGACCGGTTTTCCCGGTAATCCGTATTTGAT (site AAGCGTCCTAT)”, the “recombinant UMI read abundance (log10)” value is 1.17.

As to “AAGCGTCCATGGACCGGTTTTCCCGGTAATCCGTATTTGAT (site AATCGTCCTAT)”, the “recombinant UMI read abundance (log10)” value was determined as 0.017.

On to “AAGCTAGCATGGACCGGTTTTCCCGGTAATCCGTATTTGAA (site AAGCTAGCTTT)”, for which the “recombinant UMI read abundance (log10)” value came out at 2.09.

Turning to “AAGCTAGCATGGACCGGTTTTCCCGGTAATCCGTATTTGAA (site CAGCTAGCTTT)”, the “recombinant UMI read abundance (log10)” value is 1.37.

Consider “AAGCTAGCATGGACCGGTTTTCCCGGTAATCCGTATTTGAA (site GAGCTAGCTTT)”, for which the “recombinant UMI read abundance (log10)” value is 0.00246.

In the case of “AAGCTAGCATGGACCGGTTTTCCCGGTAATCCGTATTTGAA (site TAGCTAGCTTT)”, the “recombinant UMI read abundance (log10)” value is 1.48.

On to “AAGCTCGCATGGACCGGTTTTCCCGGTAATCCGTATTTGGG (site AAGCACGCTCC)”, for which the “recombinant UMI read abundance (log10)” value amounted to 0.0201.

Consider “AAGCTCGCATGGACCGGTTTTCCCGGTAATCCGTATTTGGG (site AAGCCCGCTCC)”, for which the “recombinant UMI read abundance (log10)” value turned out to be 0.0313.

“AAGCTCGCATGGACCGGTTTTCCCGGTAATCCGTATTTGGG (site AAGCGCGCTCC)”: the “recombinant UMI read abundance (log10)” value was 0.0107.

Turning to “AAGCTCGCATGGACCGGTTTTCCCGGTAATCCGTATTTGGG (site AAGCTCGCTCC)”, the “recombinant UMI read abundance (log10)” value turned out to be 0.0176.

Regarding “AAGGATCCATGGACCGGTTTTCCCGGTAATCCGTATTTGTT (site AAGGATCCTAA)”, the “recombinant UMI read abundance (log10)” value was found to be 1.19.

For “AAGGGCTCATGGACCGGTTTTCCCGGTAATCCGTATTTGGA (site AAGGGCTCTTC)”, the “recombinant UMI read abundance (log10)” value was found to be 1.96.

Consider “AAGGTAACATGGACCGGTTTTCCCGGTAATCCGTATTTGCT (site AAAGTAACTAG)”, for which the “recombinant UMI read abundance (log10)” value was 2.59.

With “AAGGTAACATGGACCGGTTTTCCCGGTAATCCGTATTTGCT (site AACGTAACTAG)”, the “recombinant UMI read abundance (log10)” value was 0.731.

Regarding “AAGGTAACATGGACCGGTTTTCCCGGTAATCCGTATTTGCT (site AAGGTAACTAG)”, the “recombinant UMI read abundance (log10)” value was 2.73.

“AAGGTAACATGGACCGGTTTTCCCGGTAATCCGTATTTGCT (site AATGTAACTAG)”: the “recombinant UMI read abundance (log10)” value was found to be 1.43.

With “AAGGTTACATGGACCGGTTTTCCCGGTAATCCGTATTTGAA (site AAGGTTACTTT)”, the “recombinant UMI read abundance (log10)” value came out at 2.53.

As to “AAGTAGGCATGGACCGGTTTTCCCGGTAATCCGTATTTGCA (site AAGTAGGCTTG)”, the “recombinant UMI read abundance (log10)” value was 2.63.

As to “AAGTCGTCATGGACCGGTTTTCCCGGTAATCCGTATTTGCG (site AAGTCGTCTCG)”, the “recombinant UMI read abundance (log10)” value was determined as 1.19.
